From patent US5476953A, “Biologically active amides containing a bicyclo moiety” (Cornell Research Foundation, Inc., priority 1994, dated 1995)
Values joined by “and” are separate entries in the source; they are usually repeats but may differ in a detail not shown here. Equal values may be shown once.

Tests used:
[1] = system: HCT116 human colon carcinoma cells; experiment: In vitro cytotoxicity, crystal violet assay, HCT116 human colon carcinoma; type: cell-based; details: HCT-116, inhibition of cell proliferation to 50% of untreated control, 72 hours
Protocol: Methanolic extract, obtained on thawing about 1 g frozen sponge by immersion in 20 ml methanol, was assessed for in vitro cytotoxicity in HCT116 human colon carcinoma cells using the crystal violet assay as described in Catino, J. J., et al, Cancer Chemothr. Pharmacol. 15: 240-243, 1985. Particularly, cells were plated at 4000 cells/well in 96 well microtiter plates and 24 hours later samples were added and serial diluted. The cells were incubated at 37° C. for 72 hours. The media was then removed and the cells fixed for 10 minutes with 3.7% formaldehyde in 1 X phosphate buffered saline. The fixing solution was removed and the cells stained with a 0.0075% crystal violet solution for 15 minutes. The cells were then allowed to dry. Rough IC50 values (IC50 being the drug concentration required to inhibit cell proliferation to 50% of that of untreated control cells), expressed as a dilution factor from a 2 mg/ml starting concentration, were determined by visual examination, compared to untreated control wells.
Cytotoxicity was assessed for pure Icadamide A and for pure Icadamide B in an HCT116 human colon carcinoma cell line by the crystal violet assay described previously. […] The IC50 is the drug concentration required to inhibit cell proliferation to 50% of that of untreated control cells.

[2] = system: asbestos-induced pulmonary squamous cell carcinoma (ASB), sc; experiment: In vivo antitumor activity against sc implanted asbestos-induced pulmonary squamous cell carcinoma (ASB); parameters: species or system mouse
Protocol: (§1) For evaluation of antitumor activity versus the asbestos-induced pulmonary squamous cell carcinoma (ASB), CDF1 mice were implanted either intraperitoneally (ip) or subcutaneously (sc) with 0.5 ml or 0.1 ml of a 2% brei, respectively. […] Results were evaluated on the same basis as described above for M109 mouse lung tumors except that the activity criterion for tumor growth inhibition was a T-C of ≥6 days.

P388 mouse leukemia, ip = experiment: In vivo antitumor activity against ip implanted P388 mouse leukemia
Protocol: For evaluation of antitumor activity against P388 mouse leukemia cells, 1 X 10^6 P 388 leukemia cells were implanted in the intraperitoneal (ip) cavity of (BALB/c X DBA/2)F1 (CDF1) or (C57BL/6 X DBA/2)F1 (BDF1) mice according to the procedure as described in Rose, W. C., et al, Cancer Res. 43: 1504-1510 (1983). Icadamide B was dissolved in DMSO and diluted with saline to the desired concentrations. Injection of Icadamide B was by the ip route beginning on the first day after tumor implantation and consecutively every day for five treatments (q1dX5:1). Increases in lifespan were reflected by the median survival time of treated (T) versus control (C) groups for which a % T/C was calculated. A % T/C of ≥125% was considered an active result.

[3] = system: M109 mouse lung tumor, ip; experiment: In vivo antitumor activity against ip implanted M109 mouse lung tumor; details: for MST % T/C: qd 1-5, ip, active ≥125%
Protocol: (§2) For evaluation of antitumor activity versus M109 mouse lung tumors, experiments were begun by implanting 0.5 ml of a 2.0% brei ip or 0.1 ml subcutaneously (sc) in CDF1 mice as described in Rose, W. C., Cancer Treat. Rep. 65: 299-312 (1981). Icadamide B was administered either intraperitoneally (ip), intravenously (iv) or subcutaneously (sc) by alzet pump according to dosage amounts and schedule set forth in Table IV below. Results are expressed as % T/C, i.e., percentage of median survival time of treated (T) versus control (C) groups. A % T/C of ≥125% was considered an active result. Results are also expressed in terms of tumor growth inhibition, particularly the median times for tumors in treated (T) mice to reach a 1 g size minus the median times for control (C) mice to reach a 1 g size, denoted T-C. Tumor weights were interchangeable with tumor size on the basis of 1 mm^3 =1 mg. The activity criterion for T-C is approximately equal to 4 days. Depending on the tumor volume doubling time for M109 tumors in control mice, this amount of delay in tumor growth is consistent with about one log of cell kill.

[4] = system: M109 mouse lung tumor, sc; experiment: In vivo antitumor activity against sc implanted M109 mouse lung tumor; details: for MST % T/C: active ≥125%; for T-C: time to 1 g tumor, activity criterion approximately 4 days
Protocol: as §2

[5] = system: asbestos-induced pulmonary squamous cell carcinoma (ASB), ip; experiment: In vivo antitumor activity against ip implanted asbestos-induced pulmonary squamous cell carcinoma (ASB); parameters: species or system mouse
Protocol: as §1

[6] = a) 0.020 mg/kg/inj, d. 1, 4 & 7, iv
[7] = b) 0.128 mg/kg/inj, d. 1, 3, 5, 7 & 9, iv
[8] = e) 0.032-0.0537 mg/kg daily, qd 4-10, subcutaneously implanted Alzet pump (scap)

C=C1CC(OC)(C(O)C(=O)NC2OCOC3C2OC(CC(O)/C=C/C/C=C/C=C/C(=O)NC(CCCNC(=N)N)C(=O)O)C(C)(C)C3OC)OC(C)C1C (centres unmarked) [Icadamide A]
IC50 [1]: 63 nM

C=C1CC(OC)(C(O)C(=O)NC2OCOC3C2OC(CC(O)/C=C/CCCCCCO)C(C)(C)C3OC)OC(C)C1C (centres unmarked) [Icadamide B]
MST % T/C ([2]; 0.032/0.128 mg/kg/inj, qd 4-8, iv, active ≥125%): 129%
T-C ([2]; 0.032/0.128 mg/kg/inj, qd 4-8, iv, time to 1 g tumor, activity criterion ≥6 days): 3.0 days and 3 days
distal site activity (in words) ([2]; sc implanted ASB): little distal site activity
IC50 [1]: 0.17 nM
MST % T/C (P388 mouse leukemia, ip; 0.016 mg/kg/inj, qd 1-5, ip; two separate experiments a) and b), active ≥125%): 181% and 143%
activity (in words) (P388 mouse leukemia, ip; ip implanted P388): good activity
increase in lifespan (P388 mouse leukemia, ip; maximally tolerated dose, ip, two separate experiments): 43% and 81%
MST % T/C ([3]; a) 0.016 mg/kg/inj): 163%
MST % T/C ([3]; b) 0.008 mg/kg/inj): 150%
activity (in words) ([3]; ip implanted M109): good activity
increase in lifespan ([3]; maximally tolerated doses, ip): 63% and 50%
MST % T/C [4, 6]: 135%
T-C [4, 6]: -0.3 days
MST % T/C [4, 7]: 97%
T-C [4, 7]: 0 days
MST % T/C ([4]; c) 0.016 mg/kg/inj, qd 4-8, iv): 119%
T-C ([4]; c) 0.016 mg/kg/inj, qd 4-8, iv): 0.3 days
MST % T/C ([4]; d) 0.013 mg/kg/inj, qd 4-8, ip): 109%
T-C ([4]; d) 0.013 mg/kg/inj, qd 4-8, ip): 2.5 days
MST % T/C [4, 8]: 102%
T-C [4, 8]: 3.3 days
increase in lifespan (in words) ([4]; sc implanted M109): marginal increases in lifespan
tumor growth delay (in words) ([4]; sc implanted M109): negligible tumor growth delays
MST % T/C ([5]; 0.008 mg/kg/inj, qd 4-8, ip, active ≥125%): 121%
activity (in words) ([5]; ip implanted ASB): poor activity
